{"source": "patent US10654875B2", "about": "“Cell-penetrating, guanidinium-rich oligophosphotriesters for drug and probe delivery” (The Board of Trustees of the Leland Stanford Junior …, priority 2015, dated 2020)", "key": {"[1]": {"system": "HeLa cells", "conditions": "without attachment to a transporter, previously shown; cited from earlier work"}, "[2]": {"system": "OVCA-429T (resistant) ovarian cancer cells", "assay": "MTT toxicity assay of PTX and PTX-HexPhos conjugate", "format": "cell-based, human", "conditions": "for Resistance Factor: ratio of EC50 in OVCA-429T and OVCA-429 cells", "protocol": "The in vitro efficacy of PTX-HexPhos conjugate 16 was compared to free PTX in both wild-type and PTX-resistant ovarian cancer cells engineered to have high levels of Pgp up-regulation. OVCA-429 (wild-type) and OVCA-429T (resistant) cells were treated with free PTX (14) or the HexPhos conjugate 16 for 20 minutes in PBS, then washed and incubated for 3 days. After this time, cellular viability was assessed using a standard MTT assay to generate an EC50 value (the concentration at which overall cellular viability was half that of untreated cells) for each condition. […] The efficacy of these compounds can be expressed in terms of a “resistance factor” for free PTX and the HexPhos-paclitaxel conjugate 16, defined as the EC50 in resistant cells/the EC50 in wild-type cells.\nMTT Toxicity Assays. The cytotoxicity of HexPhos oligomers, PTX alone, and PTX-HexPhos conjugate (16) were assessed by a standard MTT percent viability assay. Adherent cells (HeLa for oligomers alone, OVCA-429 or OVCA-429T for PTX and PTX-HexPhos conjugate) were plated at 5,000 cells/well in 96 well plates and allowed to incubate at 37° C. for 12-24 hours to adhere. Cells were washed with serum-free DMEM prior to treatment. In a second 96-well plate, compounds were serially diluted over a range of 200 μM to 400 nM, with two-fold dilutions between each well. For PTX conditions, a range of 20 μM to 40 nM was used. Each compound was tested in triplicate. […] Second plate was transferred to the plate containing cells, and incubated at 37° C. for 10 minutes, followed washing and replacement with 150 μL fresh serum-containing DMEM. Cells were incubated for an additional 72 hours at 37° C., after which time cellular viability was assayed by adding μ10 L of 3-(4,5-dimethylthiazol-2-yl)-2,5-diphenyltetrazolium bromide (MTT) solution (15 mg in 3 mL DMEM). Incubated for 2 hours at 37° C. […] Read absorbance on a plate reader at 570 and 690 nm. Subtracted absorbance at 570 from absorbance at 690 and normalized to wells with no cells as a minimum, and untreated cells as a maximum to calculate % viability."}, "[3]": {"system": "OVCA-429 (wild-type) ovarian cancer cells", "assay": "MTT toxicity assay of PTX and PTX-HexPhos conjugate", "format": "cell-based, human", "conditions": "wash, 72 hours drug-free media, concentrations based on paclitaxel content", "protocol": "OVCA-429 (wild-type) and OVCA-429T (resistant) cells were treated with free PTX (14) or the HexPhos conjugate 16 for 20 minutes in PBS, then washed and incubated for 3 days. After this time, cellular viability was assessed using a standard MTT assay to generate an EC50 value (the concentration at which overall cellular viability was half that of untreated cells) for each condition. […] The efficacy of these compounds can be expressed in terms of a “resistance factor” for free PTX and the HexPhos-paclitaxel conjugate 16, defined as the EC50 in resistant cells/the EC50 in wild-type cells.\nMTT Toxicity Assays. The cytotoxicity of HexPhos oligomers, PTX alone, and PTX-HexPhos conjugate (16) were assessed by a standard MTT percent viability assay. Adherent cells (HeLa for oligomers alone, OVCA-429 or OVCA-429T for PTX and PTX-HexPhos conjugate) were plated at 5,000 cells/well in 96 well plates and allowed to incubate at 37° C. for 12-24 hours to adhere. Cells were washed with serum-free DMEM prior to treatment. In a second 96-well plate, compounds were serially diluted over a range of 200 μM to 400 nM, with two-fold dilutions between each well. […] Read absorbance on a plate reader at 570 and 690 nm. Subtracted absorbance at 570 from absorbance at 690 and normalized to wells with no cells as a minimum, and untreated cells as a maximum to calculate % viability."}, "[4]": {"system": "HeLa cells", "assay": "Uptake of maleimide conjugates by flow cytometry", "conditions": "10 μM, 10 minutes", "protocol": "(FIG. 4A) Delivery of FL-maleimide to HeLa cells by click-coupling to thiol-initiated HexPhos oligomer 8. Maleimide control and HexPhos8 conjugate (11 and 12 respectively) were formed by reaction of 10 with the corresponding thiol for 2 hours at room temperature in PBS. The resulting compounds were exposed to HeLa cells at 10 μM final concentration for 10 minutes before determining uptake by flow cytometry. Data shown is the average fluorescence of 10,000 events measured.\nTo explore this strategy, deprotected thiol-initiated HexPhos 8-mer (7) was mixed with fluorescein (FL) maleimide (10) in PBS at room temperature for 2 hours to effect a Michael addition and uptake of the resulting conjugate was determined by flow cytometry (FIG. 4, panel A).\nHeLa cells were plated at 40,000 cells/well in 24-well plates and incubated at 37° C. for 12-24 hours to adhere. Before treatment, a 1:1 molar ratio of thiol-initiated HexPhos oligomer (7) and FL-maleimide (10, Molecular Probes) was incubated for 2 hours in PBS (pH 7.4) at a final concentration of 4 mM. […] After removal of the supernatant, cells were resuspended in 125 μL of PBS and transferred to FACS tubes and read on a flow cytometry analyzer for the presence of fluorescein. Results were analyzed by FlowJo software. Data presented is the mean fluorescence from 10,000 cells analyzed."}}}
{"smiles": "CN(C)c1cccc2c(S(=O)(=O)NCCO)cccc12", "note": "[Compound 4, 5-(dimethylamino)-N-(2-hydroxyethyl)naphthalene-1-sulfonamide]", "values": [{"measurement": "cell entry of probe alone", "setting": "[1]", "result": "not to enter cells"}]}
{"smiles": "CC(=O)O[C@H]1C(=O)[C@@]2(C)[C@H]([C@H](OC(=O)c3ccccc3)[C@]3(O)C[C@H](OC(=O)[C@H](O)[C@@H](NC(=O)c4ccccc4)c4ccccc4)C(C)=C1C3(C)C)[C@]1(OC(C)=O)CO[C@@H]1C[C@@H]2O", "note": "[PTX Alone (14), paclitaxel]", "values": [{"measurement": "EC50", "setting": "[2]; Homo sapiens, treated 20 minutes, wash, 72 hours drug-free media, MTT, assay limit 20 μM", "result": "> 20", "unit": "µM"}, {"measurement": "Resistance Factor", "setting": "[2]", "result": ">400"}, {"measurement": "Resistance Factor", "setting": "[2]; listed as 14", "result": "≥ 400"}, {"measurement": "EC50", "setting": "[3]; Homo sapiens, OVCA429, treated 20 minutes", "result": "0.051 ± 0.037", "unit": "µM"}, {"measurement": "EC50 (μM) OVCA-429 (Wild-type)", "setting": "[3]; treated 20 minutes", "result": "highly cytotoxic"}]}
{"smiles": "O=C1OC2(c3ccc(O)cc3Oc3cc(O)ccc32)c2ccc(N3C(=O)C=CC3=O)cc21", "note": "[Compound 10, fluorescein (FL) maleimide]", "values": [{"measurement": "FL fluorescence of cells treated with controls", "setting": "[4]", "result": "little FL fluorescence"}]}
